In US20260232715A1, “TREATMENT OF PANCREATIC CANCER” (CAN-FITE BIOPHARMA LTD., priority 2023, published 2026):

Assays:
BxPC-3 cells [1] = test: Western blot analysis of regulatory protein expression; type: cell-based, human; conditions: 20 nM namodenoson, 24 h, vs. control
Procedure: Western blot analyses were performed using the same culture conditions as the Presto Blue experiments in 10 cm plates with 20 nM namodenoson or control. After incubation for 24 h at 37° C. in a 5% CO2 incubator, the cell samples were rinsed with ice-cold PBS and transferred to ice-cold RIPA buffer with 1× protease and phosphatase inhibitor cocktail for 20 min. Cell debris was removed using centrifugation at 4° C. for 10 min, at 7500×g. The supernatant was utilized for the Western blot analyses. Protein concentrations were determined using the NanoDrop assay (ThermoFisher Scientific, Waltham, MA, USA). Equal amounts of the sample (50 μg) were separated by SDS-PAGE, using […] (Schleicher & Schuell, Keene, NH, USA). Membranes were blocked with 1% bovine serum albumin and incubated with the relevant primary antibody (dilution 1:1000) for 24 h at 4° C. Blots were then washed and incubated with the secondary antibody for 1 h at room temperature. Bands were recorded using BCIP/NBT color development kit (Promega, Madison, WI, USA).

BxPC-3 cells [2] = test: Presto Blue cell growth inhibition assay; type: cell-based, human
Procedure: Cells (15×10^4/mL) were maintained in RPMI medium supplemented with 10% fetal bovine serum (FBS), […], 100 U/ml penicillin, and […] streptomycin solution at 37° C. in a 5% CO2 incubator. Cells were transferred to a freshly prepared medium twice weekly. For the tumor cell growth experiments, BxPC-3 cells (15×10^4/mL) were incubated in the culture medium with control, 5, 10, or 20 nM namodenoson in 96-well microtiter plates for 24 h at 37° C. in a 5% CO2 incubator, after which cell growth inhibition was determined using the Presto Blue assay (Thermo Fisher Scientific, Waltham, MA, USA) used as per the manufacturer's instructions. Experiments under the same conditions with 20 nM namodenoson were also conducted with and without 20 nM of the A3AR antagonist MRS1523 (diluted to the final concentration in RPMI medium).

BxPC-3 cells [3] = test: BxPC-3 subcutaneous tumor growth in nude mice; type: in vivo, nude Balb/C mice; conditions: 10 μg/kg twice daily for 35 days (Day 22 to Day 57), by Day 57 from tumor inoculation
Procedure: Male nude Balb/C mice (Harlan Laboratories, Jerusalem, Israel), aged 2 months (mean weight, 25 g), received a subcutaneous flank injection of BxPC-3 cells (2.5×10^6). The mice were maintained on a standardized pelleted diet and supplied with tap water. […] Tumor width (W) and length (L) were measured twice weekly with a caliber, and tumor size was calculated (W^2×L/2).

BxPC-3 cells [4] = test: 3H-thymidine incorporation assay (cell growth); type: cell-based; conditions: Homo sapiens, 48 h, read-out: percentage of growth inhibition of BxPC-3 cells
Procedure: Cells (15×10^4/mL) were maintained in RPMI medium supplemented with 10% fetal bovine serum (FBS), […], 100 U/ml penicillin, and […] streptomycin solution at 37° C. in a 5% CO2 incubator. Cells were transferred to a freshly prepared medium twice weekly. 3H-thymidine incorporation assay was used to evaluate cell growth. BxPC-3 cells (5,000 cells/well) were incubated (37° C.) with CF102 (namodenoson) in different concentrations: 0.01 nM, 0.1 nM and 1 nM in a 96-well plate for 48 h. Each well was pulsed with 1 μCi 3H-thymidine for the last 24 h. The cells were harvested, and the 3H-thymidine uptake was determined in an LKB liquid scintillation counter (LKB).

Q: Which results are given for `CNC(=O)[C@H]1O[C@@H](n2cnc3c(NCc4cccc(I)c4)nc(Cl)nc32)[C@H](O)[C@@H]1O` [namodenoson, 2-chloro-N^6-(3-iodobenzyl)-adenosine-5′-N-methyl-uronamide]?
A: A3AR protein expression level (BxPC-3 cells [1]): decrease; Bad expression (BxPC-3 cells [1]): upregulated; Bax expression (BxPC-3 cells [1]): upregulated; GSK-3β expression (BxPC-3 cells [1]): upregulation; NF-κB expression (BxPC-3 cells [1]): downregulated; PI3K expression (BxPC-3 cells [1]): downregulated; cyclin D1 expression level (BxPC-3 cells [1]): decrease; p-Akt expression (BxPC-3 cells [1]): downregulated; pERK 1/2 expression level (BxPC-3 cells [1]): decrease; pMEK 1/2 expression level (BxPC-3 cells [1]): decrease; pRaf expression level (BxPC-3 cells [1]): decrease; β-catenin expression level (BxPC-3 cells [1]): decrease; cell growth, % of the control (BxPC-3 cells [2]; 20 nM namodenoson alone, 24 h): 45.0%+4.2 % of the control; cell growth, % of the control (BxPC-3 cells [2]; 20 nM namodenoson plus 20 nM MRS1523, 24 h): 81.1%+6.3 % of the control; inhibition at 0.005 µM (BxPC-3 cells [2]; Homo sapiens, BXPC-3, 5 nM, 24 h, mean±SE): 49.7%; inhibition at 0.01 µM (BxPC-3 cells [2]; Homo sapiens, BXPC-3, 10 nM, 24 h, mean±SE): 66.3%; inhibition at 0.02 µM (BxPC-3 cells [2]; Homo sapiens, BXPC-3, 20 nM, 24 h, mean±SE): 82.7%; inhibition of tumor growth vs. control (BxPC-3 cells [3]): 67.7%+15.2; inhibition at 10 pM (BxPC-3 cells [4]; 0.01 nM namodenoson): 27.9%; inhibition at 0.0001 µM (BxPC-3 cells [4]; 0.1 nM namodenoson): 53.7%; inhibition at 0.001 µM (BxPC-3 cells [4]; 1 nM namodenoson): 67.4%

Q: Which “cell growth, % of the control” value (BxPC-3 cells [2]; 20 nM MRS1523 alone, 24 h) does the source give for `CCCOC(=O)c1c(-c2ccccc2)nc(CC)c(C(=O)SCC)c1CCC` [MRS1523, reference compound] here?
A: 100.8%+11.1 % of the control
